Experimental data as given in ChEMBL document CHEMBL1201862, “PubChem BioAssay data set” (2004).
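Exposure lasted 48 hours, with cells grown in 96-well plates and compounds tested at five concentrations. The concentration for 50% growth inhibition is given as GI50.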 Calls of active or inactive are those of the source. Cut-off read from the data, not from the text of the source: active = GI50 up to about 1.1 µM and inactive = higher.

Key:
Experiment in all cases: NCI tumour cell line growth inhibition, 48 h
[1] = tested on: NCI-H522
[2] = tested on: DU-145
[3] = tested on: SW-620
[4] = tested on: NCI-H23
[5] = tested on: LOX IMVI
[6] = tested on: UACC-62
[7] = tested on: T47D
[8] = tested on: UO-31
[9] = tested on: BT-549
[10] = tested on: MDA-N
[11] = tested on: SK-MEL-2
[12] = tested on: CAKI-1
[13] = tested on: KM12
[14] = tested on: SNB-19
[15] = tested on: HT-29
[16] = tested on: NCI/ADR-RES
[17] = tested on: SR
[18] = tested on: Malme-3M
[19] = tested on: OVCAR-3
[20] = tested on: OVCAR-5
[21] = tested on: HCT-15
[22] = tested on: MDA-MB-435
[23] = tested on: 786-0
[24] = tested on: A549
[25] = tested on: NCI-H226
[26] = tested on: OVCAR-4
[27] = tested on: MDA-MB-231
[28] = tested on: UACC-257
[29] = tested on: K562
[30] = tested on: MOLT-4
[31] = tested on: HCC 2998
[32] = tested on: SK-OV-3
[33] = tested on: Hs-578T
[34] = tested on: TK-10
[35] = tested on: PC-3
[36] = tested on: SN12C
[37] = tested on: SF-295
[38] = tested on: HOP-92
[39] = tested on: A498
[40] = tested on: SK-MEL-5
[41] = tested on: EKVX
[42] = tested on: COLO 205
[43] = tested on: U-251
[44] = tested on: OVCAR-8
[45] = tested on: M14
[46] = tested on: ACHN
[47] = tested on: SF-268
[48] = tested on: MCF7
[49] = tested on: HL-60
[50] = tested on: HCT-116
[51] = tested on: SF-539
[52] = tested on: SNB-75
[53] = tested on: CCRF-CEM
[54] = tested on: HOP-62
[55] = tested on: SK-MEL-28
[56] = tested on: NCI-H460
[57] = tested on: RPMI-8226
[58] = tested on: IGROV-1

Measured: GI50

CCOC(=O)CCC(NC(=O)Cc1ccc(Nc2nc3cc(F)c(F)cc3nc2C(=O)OCC)cc1)C(=O)OCC (stereo unspecified)
> 100 µM: [21]
inactive: [1] 38.2 µM | [2] > 100 µM | [3] 73.6 µM | [4] > 100 µM | [5] 44.4 µM | [6] 58.7 µM | [7] 25.2 µM | [8] > 100 µM | [9] 51.2 µM | [10] > 100 µM | [11] 23.7 µM | [12] > 100 µM | [13] > 100 µM | [14] > 100 µM | [15] > 100 µM | [16] > 100 µM | [17] 27.5 µM | [18] 88.1 µM | [19] > 100 µM | [20] > 100 µM | [22] > 100 µM | [23] > 100 µM | [24] > 100 µM | [25] > 100 µM | [26] > 100 µM | [27] 41.8 µM | [28] 28.6 µM | [29] 37.2 µM | [30] 44.6 µM | [31] > 100 µM | [32] > 100 µM | [33] 40.8 µM | [34] > 100 µM | [35] > 100 µM | [36] 69.2 µM | [37] > 100 µM | [38] 28.8 µM | [39] > 100 µM | [40] > 100 µM | [41] > 100 µM | [42] > 100 µM | [43] > 100 µM | [44] 94.2 µM | [45] > 100 µM | [46] > 100 µM | [47] 31.3 µM | [48] 88.7 µM | [49] 21.5 µM | [50] 83.9 µM | [51] > 100 µM | [52] 35.2 µM | [53] 20.8 µM | [54] > 100 µM | [55] > 100 µM | [56] > 100 µM

CN1C2CCC1C(C(O)c1ccccc1[N+](=O)[O-])C(=O)C2 (stereo unspecified)
inactive: [1] 40.3 µM | [2] 28.3 µM | [3] 45.2 µM | [4] 73.8 µM | [5] 41.7 µM | [6] > 100 µM | [7] 26.6 µM | [8] 47.1 µM | [9] 43.9 µM | [10] 27 µM | [11] > 100 µM | [12] 38.4 µM | [13] 36.5 µM | [14] > 100 µM | [15] 32.4 µM | [16] 23.4 µM | [18] > 100 µM | [19] 34.7 µM | [20] > 100 µM | [22] 23.6 µM | [23] 44 µM | [24] > 100 µM | [25] 24.2 µM | [26] 77.3 µM | [27] 64 µM | [28] > 100 µM | [29] 32.1 µM | [30] 47.4 µM | [31] > 100 µM | [32] > 100 µM | [33] 53.2 µM | [34] > 100 µM | [35] 45.7 µM | [36] 33.7 µM | [37] 58.1 µM | [57] 40.8 µM | [58] 24.9 µM | [39] > 100 µM | [40] 31.1 µM | [41] > 100 µM | [42] 34.6 µM | [43] > 100 µM | [44] 31.6 µM | [45] 35.2 µM | [46] > 100 µM | [47] 57.1 µM | [48] 39.1 µM | [49] 31.8 µM | [50] 32.3 µM | [51] 29.8 µM | [53] 46.9 µM | [54] 45.3 µM | [55] > 100 µM | [56] > 100 µM
19.5 µM: [21]
